Test results taken from patent US20170215470A1, “USE OF A COMPOSITION CONTAINING A LONG-CHAIN POLYOL AS A BASE FOR E-LIQUIDS” (LABORATOIRES CERES, priority 2014, published 2017).
Like-named read-outs stand apart in the source and are kept apart here.

Assay: Thermal stability by thermogravimetric (TGA) and thermal differential analysis (TDA)
Type: physicochemical
Description: The thermogravimetric analysis is a method of thermal analysis in which the changes of the physical and chemical properties of the materials are measured as a function of the temperature. The TGA can supply information about the physical phenomena such as the vaporization or the combustion. Also, it is possible to obtain information about the chemical phenomena such as the dehydration or the decomposition. In the thermal differential analysis (TDA) the study material and an inert reference undergo identical thermic cycles. During the analysis the temperature difference between the sample and the reference is recorded. These temperature differences followed as a function of the rime relative to the inert reference inform us about the thermal phenomena undergone by the sample, whether exothermic or endothermic. […] The endothermic character is associated with a change of state of the compound (ex. vaporization) whereas the exothermic character is induced by reactions of decomposition or by intra- and intermolecular chemical reactions. The thermogravimetric analyzer […] of TA INSTRUMENT was used to conjointly determine the vaporization temperatures of the products, the enthalpy values and the rate of products not vaporized at 350° C. The analysis conditions are as follows: test size: 50 mg open crucible under flow of air: 100 ml/min rate of heating: 10° C./min temperature range: 25 to 350° C. (temperature conditions representative of a normal use as well as of misuse of an electronic cigarette). The apparatus is cleaned between each analysis by being heated to 600° C. under a flow of air in order to eliminate any trace of non-vaporized residue deposited on the crucible, the balance arms or the kiln walls.

SMILES | TDA vaporization temperature (° C.) (1) (endothermic peak, 50 mg, air 100 ml/min, 10° C./min, 25 to 350° C.) [°C] | TDA transformation temperature (° C.) (2) (exothermic peak (reaction and/or decomposition), 50 mg, air 100 ml/min, 10° C./min) | TDA vaporization temperature (° C.) (1) [°C] | TGA non-evaporated residue at 250° C. (%)
CC(O)CCO (stereo not shown) [1,3-butane diol] | 171 | without any thermal decomposition | – | –
CN1CCCC1c1cccnc1 (stereo not shown) [Nicotine] | – | – | 190 | 1.08
